Test results: patent US20060058320A1, “[1,2,4] Triazolo[1,5-c]pyrimidine derivatives” (KYOWA HAKKO KOGYO CO., LTD., priority 2002, published 2006)
Structures can show the parent of a compound that is named as a salt.

Test system: not given
Experiment: not given
Conditions: not given

| SMILES | melting point |
| --- | --- |
| Nc1nc(COc2cccc(Br)c2)cc2nc(-c3ccco3)nn12 | 261.5 to 261.9 °C |
| Nc1nc(-c2ccncc2)cc2nc(-c3ccco3)nn12 [Compound 54, 5-Amino-2-(2-furyl)-7-(4-pyridyl)[1,2,4]triazolo[1,5-c]-pyrimidine] | 279.2 to 279.9 °C |
| Nc1nc(C(=O)NCCCn2ccnc2)cc2nc(-c3ccco3)nn12 [Compound 90, 5-Amino-2-(2-furyl)[1,2,4]triazolo[1,5-c]pyrimidine-7-carboxylic acid [3-(1-imidazolyl)propyl]amide] | 198.5 to 198.8 °C |
| CCN1CCN(Cc2cc3nc(-c4ccco4)nn3c(N)n2)CC1 (as salt: hydrochloride) [Compound 48, 5-Amino-7-(4-ethylpiperazin-1-ylmethyl)-2-(2-furyl)[1,2,4]-triazolo[1,5-c]pyrimidine trihydrochloride] | 262 to 262.4 °C |
| COCc1cc2nc(-c3ccco3)nn2c(N)n1 [Compound 23, 5-Amino-2-(2-furyl)-7-methoxymethyl[1,2,4]triazolo[1,5-c]pyrimidine] | 167.2 to 167.6 °C |
| CCOCc1cc2nc(-c3ccco3)nn2c(N)n1 [Compound 24, 5-Amino-7-ethoxymethyl-2-(2-furyl) [1,2,4]triazolo[1,5-c]pyrimidine] | 153.8 to 154.6 °C |
| Nc1nc(/C=C/CNCC2CC2)cc2nc(-c3ccco3)nn12 (as salt: HCl) [Compound 68, 5-Amino-7-[3-(cyclopropylmethylamino)-(E)-propan-1-en-1-yl]-2-(2-furyl)[1,2,4]triazolo[1,5-c]pyrimidine] | 263.5 to 264.2 °C |
| Nc1nc(COc2cccnc2)cc2nc(-c3ccco3)nn12 [Compound 31, 5-Amino-2-(2-furyl)-7-(pyridin-3-yloxymethyl)[1,2,4]triazolo[1,5-c]pyrimidine] | 253.5 to 254 °C |
| Nc1nc(-c2csc(NCCN3CCOCC3)n2)cc2nc(-c3ccco3)nn12 [Compound 59, 5-Amino-2-(2-furyl)-7-[2-(2-morpholinoethylamino)thiazol-4-yl][1,2,4]triazolo[1,5-c]pyrimidine] | 274.7 to 275 °C (dec.) |
| Cc1noc(C)c1-c1cc2nc(-c3ccco3)nn2c(N)n1 [Compound 57, 5-Amino-7-(3,5-dimethylisoxazol-4-yl)-2-(2-furyl)[1,2,4]-triazolo[1,5-c]pyrimidine] | 227.8 to 228.5 °C |
| CC(=O)NCCNCc1cc2nc(-c3ccco3)nn2c(N)n1 [Compound 45, 5-Amino-7-[2-(N-acetylamino)ethylaminomethyl]-2-(2-furyl)-[1,2,4]triazolo[1,5-c]pyrimidine] | 190.5 to 190.9 °C |
| Nc1nc(COc2ccccn2)cc2nc(-c3ccco3)nn12 [Compound 32, 5-Amino-2-(2-furyl)-7-(pyridin-2-yloxymethyl)[1,2,4]-triazolo[1,5-c]pyrimidine] | 229 to 229.2 °C |
| Nc1nc(-c2cncnc2)cc2nc(-c3ccco3)nn12 [Compound 56, 5-Amino-2-(2-furyl)-7-(5-pyrimidinyl)[1,2,4]triazolo[1,5-c]-pyrimidine] | 271 °C (dec.) |
| CCN1CCN(Cc2ccc(-c3cc4nc(-c5ccco5)nn4c(N)n3)cc2)CC1 (as salt: hydrochloride) | 265 °C (dec.) |
| Nc1nc(CNCCc2ccccn2)cc2nc(-c3ccco3)nn12 (as salt: hydrochloride) [Compound 44, 5-Amino-7-[2-(2-pyridyl)ethylaminomethyl]-2-(2-furyl)-[1,2,4]triazolo[1,5-c]pyrimidine dihydrochloride] | 249.5 to 249.7 °C |
| Nc1nc(C(=O)NCC2CCCCC2)cc2nc(-c3ccco3)nn12 | 273.5 to 274 °C |
| COCCN(CCOC)C(=O)c1cc2nc(-c3ccco3)nn2c(N)n1 [Compound 88, 5-Amino-2-(2-furyl)[1,2,4]triazolo[1,5-c]pyrimidine-7-carboxylic acid [N,N-bis(2-methoxyethyl)]amide] | 190.5 to 190.8 °C |

The remaining lines, values ahead:

| melting point | SMILES |
| --- | --- |
| 136 to 136.5 °C | COc1ccc(CN(Cc2cc3nc(-c4ccco4)nn3c(N)n2)C(C)=O)cc1OC [Compound 34, 7-[(N-acetyl-3,4-dimethoxybenzylamino)methyl]-5-amino-2-(2-furyl)[1,2,4]triazolo[1,5-c]pyrimidine] |
| 159.2 to 159.4 °C | Nc1nc(-c2cccc(CNCCc3ccccn3)c2)cc2nc(-c3ccco3)nn12 [Compound 19, 5-Amino-2-(2-furyl)-7-{3-[2-(2-pyridyl)ethylaminomethyl]-phenyl}[1,2,4]triazolo[1,5-c]pyrimidine] |
| 224 to 224.5 °C | Nc1nc(-c2ccccc2C=O)cc2nc(-c3ccco3)nn12 [Compound 2, 5-Amino-7-(2-formylphenyl)-2-(2-furyl)[1,2,4]triazolo[1,5-c]pyrimidine] |
| 168 to 168.7 °C | COc1ccc(CNCc2ccccc2-c2cc3nc(-c4ccco4)nn3c(N)n2)cc1OC [Compound 3, 5-Amino-7-[2-(3,4-dimethoxybenzylaminomethyl)phenyl]-2-(2-furyl) [1,2,4]triazolo[1,5-c]pyrimidine] |
| 254.5 to 254.9 °C | Nc1nc(C(=O)NCc2ccc(F)c(F)c2)cc2nc(-c3ccco3)nn12 [Compound 82, 5-Amino-2-(2-furyl)[1,2,4]triazolo[1,5-c]pyrimidine-7-carboxylic acid (3,4-difluorobenzyl)amide] |
| 188.5 to 189.1 °C | CN(Cc1ccccc1)C(=O)c1cc2nc(-c3ccco3)nn2c(N)n1 (as salt: HCl) [Compound 78, 5-Amino-2-(2-furyl)[1,2,4]triazolo[1,5-c]pyrimidine-7-carboxylic acid (N-benzyl-N-methyl)amide] |
| 196.8 to 197.1 °C | Nc1nc(COc2ccccc2F)cc2nc(-c3ccco3)nn12 [Compound 30, 5-Amino-7-(2-fluorophenoxymethyl)-2-(2-furyl) [1,2,4]-triazolo[1,5-c]pyrimidine] |
| 238.5 to 240 °C | CC(=O)NCCNCc1ccc(-c2cc3nc(-c4ccco4)nn3c(N)n2)cc1 (as salt: hydrochloride) [Compound 16, 7-{4-[2-(N-acetylamino)ethylaminomethyl]phenyl}-5-amino-2-(2-furyl)[1,2,4]triazolo[1,5-c]pyrimidine monohydrochloride] |
| 279.2 to 279.6 °C | Nc1nc(CNc2ccccc2)cc2nc(-c3ccco3)nn12 [Compound 36, 5-Amino-7-anilinomethyl-2-(2-furyl)[1,2,4]triazolo[1,5-c]-pyrimidine] |
| 230.8 to 231.3 °C | CC(=O)NCCNCc1ccccc1-c1cc2nc(-c3ccco3)nn2c(N)n1 (as salt: hydrochloride) [Compound 7, 5-Amino-7-{2-[2-(N-acetylamino)ethylaminomethyl]phenyl}-2-(2-furyl)[1,2,4]triazolo[1,5-c]pyrimidine monohydrochloride] |
| 212.8 to 213.2 °C | Nc1nc(-c2cccc(C=O)c2)cc2nc(-c3ccco3)nn12 [Compound 18, 5-Amino-7-(3-formylphenyl)-2-(2-furyl)[1,2,4]triazolo[1,5-c]pyrimidine] |
| 179.2 to 180 °C | Nc1nc(-c2ccccc2CNCCc2ccccn2)cc2nc(-c3ccco3)nn12 [Compound 4, 5-Amino-2-(2-furyl)-7-{2-[2-(2-pyridyl)ethylaminomethyl]-phenyl}[1,2,4]triazolo[1,5-c]pyrimidine] |
| 238.5 to 238.7 °C | COc1cc(CNCc2cc3nc(-c4ccco4)nn3c(N)n2)cc(OC)c1 (as salt: hydrochloride) [Compound 43, 5-Amino-7-[(3,5-dimethoxybenzylamino)methyl]-2-(2-furyl)-[1,2,4]triazolo[1,5-c]pyrimidine dihydrochloride] |

Test system: CGS 21680-induced catalepsy
Experiment: Activity on CGS 21680-induced catalepsy
Format: in vivo, mice
Conditions: Mus musculus, po; from total score of test group and control group; 10 mg/kg orally; read-out: Remission ratio (%)
Protocol: Parkinson's disease is a motor disorder based on degeneration and cell death of the nigrostriatal dopaminergic neurons. When CGS 21680 (adenosine A2A receptor agonist) is administered into the intracerebral ventricle, the inhibitory synaptic transmission of GABA in the medium sized spiny neurons in the corpus striatum is inhibited directly via the adenosine A2A receptor [Journal of Neuroscience, vol. 16, p. 605 (1996)]. Accordingly, it is concidered that the adenosine A2A receptor agonists positively regulate the output of the GABAergic neurons from the corpus striatum to the globus pallidus lateralis, and, as a result, catalepsy is induced by the administration of CGS 21680.
The test was carried out using ten 5-week age male ddY mice (22-25 g in body weight, Japan SLC) per group. CGS 21680 (produced by RBI Co) was dissolved in physiological saline (produced by Otsuka Pharmaceutical Co., Ltd.), and 10 μg/20 μL of the solution was injected into mouse intracerebral ventricle. Each test compound was used by suspending it in distilled water containing 0.3% of polyoxylene (20) sorbitan monooleate (referred to as “Tween 80” hereinafter) (produced by Otsuka Pharmaceutical Co., Ltd.). The suspension containing each test compound or a solution containing no test Compound (distilled water containing 0.3% of Tween 80; used as a control) was orally administered (0.1 mL per 10 g of mouse body weight) 30 minutes before the injection of CGS 21680 into the intracerebral ventricle. One hour after the administration of the each test compound, only forelimbs or only hindlimbs of each mouse were laid on a vertically arranged stand made of acryl and having a size of 4.5 cm in height and 1.0 cm in width to measure catalepsy symptoms. All of the test compounds were administered orally in a dose of 10 mg/kg.
The criteria of the catalepsy score are shown below.
The effect was decided by a total catalepsy score of 10 mice in one group (the maximum score: 50 points). When the total score was 40 points or less, the activity of the compounds was decided positive. The number of the animals showing remission of catalepsy was expressed by the number of cases showing a catalepsy score of 4 points or less in 10 cases. The catalepsy remission ratio was expressed as the percentage of the total score in the test compound-administered group to the total score in the control group.

| SMILES | inhibition in vivo at 10 mg/kg [%] |
| --- | --- |
| Nc1nc(C(=O)NCCc2ccccn2)cc2nc(-c3ccco3)nn12 [Compound 84, 5-Amino-2-(2-furyl) [1,2,4]triazolo[1,5-c]pyrimidine-7-carboxylic acid [2-(2-pyridyl)ethyl]amide] | 92 |
| COCCNC(=O)c1cc2nc(-c3ccco3)nn2c(N)n1 [Compound 86, 5-Amino-2-(2-furyl)[1,2,4]triazolo[1,5-c]pyrimidine-7-carboxylic acid (2-methoxyethyl)amide] | 100 |
| COc1ccc(CN(C)C(=O)c2cc3nc(-c4ccco4)nn3c(N)n2)cc1OC [Compound 81, 5-Amino-2-(2-furyl)[1,2,4]triazolo[1,5-c]pyrimidine-7-carboxylic acid [N-(3,4-dimethoxybenzyl)-N-methyl]amide] | 96 |

Same assay, conditions: total catalepsy score of 10 mice (maximum 50 points; 40 points or less = positive); 10 mg/kg orally, one hour after administration

| SMILES | Total score |
| --- | --- |
| Nc1nc(C(=O)NCCc2ccccn2)cc2nc(-c3ccco3)nn12 [Compound 84, 5-Amino-2-(2-furyl) [1,2,4]triazolo[1,5-c]pyrimidine-7-carboxylic acid [2-(2-pyridyl)ethyl]amide] | 4 |
| COCCNC(=O)c1cc2nc(-c3ccco3)nn2c(N)n1 [Compound 86, 5-Amino-2-(2-furyl)[1,2,4]triazolo[1,5-c]pyrimidine-7-carboxylic acid (2-methoxyethyl)amide] | 0 |
| COc1ccc(CN(C)C(=O)c2cc3nc(-c4ccco4)nn3c(N)n2)cc1OC [Compound 81, 5-Amino-2-(2-furyl)[1,2,4]triazolo[1,5-c]pyrimidine-7-carboxylic acid [N-(3,4-dimethoxybenzyl)-N-methyl]amide] | 2 |
